The text below walks through data of paper PMC6850446, “In vivo inactivation of glycosidases by conduritol B epoxide and cyclophellitol as revealed by activity‐based protein profiling” (The Febs Journal, 2019).

Like-named read-outs stand apart in the source and are kept apart here.

Assay [1] concerns the target T1, GBA2 (nonlysosomal glucosylceramidase) (Homo sapiens, UniProt Q9HCG7).
T1 construct: human GBA2 stably expressed in HEK293T; 110 kDa on gel
T1 sequence (Q9HCG7 1-927): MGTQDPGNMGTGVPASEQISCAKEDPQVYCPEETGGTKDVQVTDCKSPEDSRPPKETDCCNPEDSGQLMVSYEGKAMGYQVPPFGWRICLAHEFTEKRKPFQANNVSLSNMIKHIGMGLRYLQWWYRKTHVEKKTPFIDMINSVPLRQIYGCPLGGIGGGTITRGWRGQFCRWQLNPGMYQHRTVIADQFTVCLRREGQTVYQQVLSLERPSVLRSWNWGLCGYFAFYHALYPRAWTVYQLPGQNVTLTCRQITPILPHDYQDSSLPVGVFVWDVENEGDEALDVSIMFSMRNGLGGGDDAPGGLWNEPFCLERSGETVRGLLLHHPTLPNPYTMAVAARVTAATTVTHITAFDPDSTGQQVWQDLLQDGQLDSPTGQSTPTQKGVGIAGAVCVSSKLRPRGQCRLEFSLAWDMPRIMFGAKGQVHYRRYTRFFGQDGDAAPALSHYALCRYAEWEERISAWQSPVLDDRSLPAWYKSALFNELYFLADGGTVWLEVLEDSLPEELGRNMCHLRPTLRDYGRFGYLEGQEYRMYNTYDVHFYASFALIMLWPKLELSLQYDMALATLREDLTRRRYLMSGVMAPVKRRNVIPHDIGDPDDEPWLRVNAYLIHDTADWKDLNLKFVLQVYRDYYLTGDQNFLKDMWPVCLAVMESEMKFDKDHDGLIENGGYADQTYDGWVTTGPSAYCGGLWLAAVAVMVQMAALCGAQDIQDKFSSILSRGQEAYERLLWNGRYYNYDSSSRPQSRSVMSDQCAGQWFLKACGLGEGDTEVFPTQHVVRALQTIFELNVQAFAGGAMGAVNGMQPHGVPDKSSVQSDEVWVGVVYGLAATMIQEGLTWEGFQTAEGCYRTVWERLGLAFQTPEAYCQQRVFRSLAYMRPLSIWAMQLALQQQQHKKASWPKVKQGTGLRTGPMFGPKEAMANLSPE
In words: intact cells treated, residual activity in lysate with 4MU-glucoside. The class given is cell-based. An excerpt:
intact cells treated, residual activity in lysate with 4MU-glucoside on GBA2 (nonlysosomal glucosylceramidase)

Another assay concerns the target T2, GBA (HEK293T cells) (Homo sapiens, UniProt P04062).
T2 construct: gene GBA1; endogenous lysosomal enzyme in HEK293T cells that stably express human GBA2; 58-66 kDa on gel
T2 sequence (P04062 40-536): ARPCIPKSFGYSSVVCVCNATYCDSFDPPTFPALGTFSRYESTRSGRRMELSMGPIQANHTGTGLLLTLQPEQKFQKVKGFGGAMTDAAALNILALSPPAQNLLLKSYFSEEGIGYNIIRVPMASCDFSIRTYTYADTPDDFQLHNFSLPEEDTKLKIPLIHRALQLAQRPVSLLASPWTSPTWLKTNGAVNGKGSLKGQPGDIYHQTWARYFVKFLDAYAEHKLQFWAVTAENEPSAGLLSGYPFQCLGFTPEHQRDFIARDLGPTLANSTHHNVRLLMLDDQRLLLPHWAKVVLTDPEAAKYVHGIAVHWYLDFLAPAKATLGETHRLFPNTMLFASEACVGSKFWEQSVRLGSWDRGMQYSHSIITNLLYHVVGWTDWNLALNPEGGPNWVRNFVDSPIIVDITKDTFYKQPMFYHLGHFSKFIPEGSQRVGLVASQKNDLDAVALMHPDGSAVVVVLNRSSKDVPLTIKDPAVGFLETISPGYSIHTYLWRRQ
The description is as above. It is filed as cell-based. The following applies: covalent, 24 h treatment of intact HEK293T cells, assay pH 5.2 with 25 nM AMP-DNM to block GBA2. An excerpt: intact cells treated, residual activity in lysate with 4MU-glucoside on GBA (HEK293T cells)

The target in another assay is T3, GBA (zebrafish larvae) (Danio rerio, UniProt E7EZM1).
T3 construct: gene gba1; endogenous enzyme in larvae, measured in larval lysate
T3 sequence (E7EZM1 20-518): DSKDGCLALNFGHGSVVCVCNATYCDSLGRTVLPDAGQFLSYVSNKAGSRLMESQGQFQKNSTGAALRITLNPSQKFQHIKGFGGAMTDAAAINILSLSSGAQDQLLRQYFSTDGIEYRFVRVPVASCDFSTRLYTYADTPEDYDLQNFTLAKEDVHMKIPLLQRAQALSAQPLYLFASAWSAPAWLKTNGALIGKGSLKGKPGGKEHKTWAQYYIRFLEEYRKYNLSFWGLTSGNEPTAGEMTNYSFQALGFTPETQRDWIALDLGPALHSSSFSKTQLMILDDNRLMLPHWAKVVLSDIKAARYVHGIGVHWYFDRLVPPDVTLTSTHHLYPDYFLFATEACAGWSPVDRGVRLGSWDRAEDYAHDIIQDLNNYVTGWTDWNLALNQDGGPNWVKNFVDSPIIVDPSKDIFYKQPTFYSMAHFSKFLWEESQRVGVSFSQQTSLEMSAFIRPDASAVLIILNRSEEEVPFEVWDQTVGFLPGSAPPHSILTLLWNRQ
In words: live larvae exposed, residual activity in lysate with 4MU-glucoside. The conditions noted are these: covalent, in vivo: concentration in egg water, 5 days at 28.5 °C, assay pH 5.2 with AMP-DNM. An excerpt:
live larvae exposed, residual activity in lysate with 4MU-glucoside on GBA (zebrafish larvae)

For `OC1C(O)C(O)C2OC2C1O` (stereo not drawn) [compound 1, conduritol B epoxide], the IC50 in assay [1] (read-out: CBE / Enz. assay) turned out to be 272000 nM; at GBA (HEK293T cells) (read-out: CBE / Enz. assay), 331 nM; at GBA (zebrafish larvae) (read-out: CBE / Enz. assay) it was 58500 nM.
For the compound `OC[C@@H]1[C@@H](O)[C@H](O)[C@@H](O)[C@@H]2O[C@H]12` [compound 2, cyclophellitol], the values for the IC50 (in assay [1] (read-out: CP / Enz. assay); on GBA (HEK293T cells) (read-out: CP / Enz. assay); on GBA (zebrafish larvae) (read-out: CP / Enz. assay)) were 198 nM, 86 nM and 130 nM, respectively.
